{"source": "patent US6025142A", "about": "“Hydrophobic u-PAR binding site” (Boehringer Mannheim GmbH, priority 1994, dated 2000)", "key": {"u-PAR [1]": {"biological_target": "T1, u-PAR (Homo sapiens, UniProt Q03405)", "T1 construct": "made in house; host or cells: Chinese hamster ovary (CHO) cells, conditioned media", "T1 sequence (Q03405 23-299)": "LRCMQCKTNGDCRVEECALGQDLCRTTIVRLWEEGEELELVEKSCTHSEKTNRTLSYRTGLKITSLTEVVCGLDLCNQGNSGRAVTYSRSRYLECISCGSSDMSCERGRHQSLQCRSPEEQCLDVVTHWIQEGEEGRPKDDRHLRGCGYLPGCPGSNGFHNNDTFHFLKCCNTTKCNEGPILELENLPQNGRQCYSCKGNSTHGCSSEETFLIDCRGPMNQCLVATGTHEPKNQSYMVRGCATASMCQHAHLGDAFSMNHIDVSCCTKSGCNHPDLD", "test": "fluorescence titration of u-PAR with ANS (Scatchard)", "format": "binding", "details": "intact u-PAR", "description": "ANS titration. The stoichiometry and affinity of ANS binding to u-PAR was determined by titrating fixed concentrations of u-PAR with ANS up to a concentration of 100 μM. The observed fluorescence intensities were corrected for the dilution effect of the added ANS, the low background fluorescence of ANS in buffer and for the inner filter effect of the varying concentration of ANS. The latter was performed using the relationship\nwhere ε386 is the molar extinction coefficient of ANS at half the path length of the fluorescence cuvette, ANSo is the total ANS concentration, and Fobs and Fcorr are the observed and corrected fluorescence intensities. The concentration of bound ANS was determined from the relationship\nwhere Fmax is the theoretical fluorescence of a molar solution if all were bound to u-PAR. This parameter was calculated by titration of a protein concentration sufficiently high to ensure that essentially all added ANS is bound in the initial linear part of the binding curve. The data generated in this way were analyzed by the method of Scatchard."}, "complement component C3b": {"biological_target": "complement component C3b", "details": "Isenman, 1983; read-out: Kd of ANS binding to complement component C3b; cited from earlier work"}, "apohemoglobin": {"biological_target": "apohemoglobin", "details": "Stryer, 1965; read-out: Kd of ANS binding to apohemoglobin; cited from earlier work"}, "u-PAR [2]": {"biological_target": "T1, u-PAR", "test": "protease cleavage of u-PAR monitored by ANS fluorescence", "format": "biochemical", "description": "Fluorescence measurements. […] All fluorescence measurements were made using 2 μM u-PAR and 10 μM ANS in PBS at 25° C. unless otherwise stated."}}}
{"compound": "O=S(=O)(O)c1cccc2cccc(Nc3ccccc3)c12", "note": "[ANS, 8-anilino-1-naphthalene sulfonic acid]", "values": [{"measurement": "enhancement of ANS fluorescence intensity on binding to u-PAR", "setting": "u-PAR [1]", "value": "> 10", "unit": "fold"}, {"measurement": "stoichiometry of ANS binding", "setting": "u-PAR [1]", "value": "1.09±0.17", "unit": "moles/mole u-PAR"}, {"measurement": "Kd", "setting": "u-PAR [1]; PBS, 25° C., read-out: dissociation constant of ANS binding to u-PAR", "value": "33.8 ± 3.2", "unit": "µM"}, {"measurement": "Kd", "setting": "complement component C3b", "value": 40, "unit": "µM"}, {"measurement": "Kd", "setting": "apohemoglobin", "value": 55, "unit": "µM"}]}
{"compound": "chymotrypsin", "values": [{"measurement": "reduction in the ANS fluorescence after cleavage of intact u-PAR", "setting": "u-PAR [2]", "value": 75, "unit": "%"}]}
